Structures are written as SMILES.

The record followed here is ChEMBL document CHEMBL1130254, “Screening solution-phase combinatorial libraries using pulsed ultrafiltration/electrospray mass spectrometry” (J Med Chem, 1997).

Series [1] concerns the target T1, Adenosine deaminase (Homo sapiens) (UniProt P00813).
T1 sequence (whole entry): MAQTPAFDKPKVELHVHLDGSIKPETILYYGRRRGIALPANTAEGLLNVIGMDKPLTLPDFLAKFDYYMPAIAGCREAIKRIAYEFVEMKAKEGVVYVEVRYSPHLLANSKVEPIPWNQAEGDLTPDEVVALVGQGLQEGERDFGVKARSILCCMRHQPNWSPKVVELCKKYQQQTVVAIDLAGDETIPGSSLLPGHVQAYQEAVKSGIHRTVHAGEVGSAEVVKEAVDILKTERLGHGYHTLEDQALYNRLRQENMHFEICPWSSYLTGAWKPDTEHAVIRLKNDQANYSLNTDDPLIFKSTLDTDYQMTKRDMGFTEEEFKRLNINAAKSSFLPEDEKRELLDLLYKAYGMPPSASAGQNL
Description: Adenosine deaminase inhibition index

A short description of series [2]: Relative ion enhancement, determined in pulsed ultrafiltration. The format is ADME.

Take `CCCCCCCCC(C(C)O)n1cnc2c(N)ncnc21` (stereo unspecified): the ([I]/[S]0.5) in series [1] worked out at 0.00016. Moreover, in series [2], the Ion enhancement worked out at 5.3.

As to `CC(O)C(Cc1ccccc1)n1cnc2c(N)ncnc21` (stereo unspecified), the ([I]/[S]0.5) in series [1] turned out to be 0.069. Also, in series [2], the Ion enhancement is less than 0.01.

The compound `CCCCCC[C@@H]([C@@H](C)O)n1cnc2c(N)ncnc21` [EHNA] yielded a ([I]/[S]0.5) in series [1] of 0.00042. Besides, the Ion enhancement in series [2] worked out at 1.
